Measurements: patent publication US4542140A, “Pyridinyl substituted ketenemercaptal derivatives” (American Home Products Corporation, priority 1983, dated 1985)

Experiments:
[1] = system: spontaneous gastric acid secretion; assay: inhibition of spontaneous gastric acid secretion in cannulated rats; assay type: in vivo, Male albino Sprague Dawley rats
Protocol: Male albino Sprague Dawley rats (200-300 g), purchased from Canadian Breeding Laboratories, were employed. Two gastric cannulas were implanted surgically in each rat as described by L. E. Borella and F. Herr, Gastroenterology, 61, 345 (1971). The rats were used two to three weeks after the operation at a time when their food intake and weight gain were similar to the food intake and weight gain of unoperated litter mates. Before testing, the rats were deprived of food for 18 hours, but they had available a solution of 0.2% sodium chloride in 5% glucose for drinking ad libitum. Prior to each experiment, the plugs of the stomach cannulas of each rat were removed and the debris present in the stomach was flushed out with tepid saline passed through the cannulas. Thereafter, the lumen of the stomach was continuously perfused with saline introduced into the stomach through the forestomach cannula at a rate of 0.8-1.2 ml/min. The stomach perfusate flowing out of the antrum cannula was collected in 60 minutes intervals and the total acid in each collection was titrated with 0.05N sodium hydroxide employing phenol red as an indicator. After a period of acclimatization of about 60 to 90 minutes, the acid output values were recorded. On the basis of the hourly acid output, the rats were divided into equal groups so that the average acid output of all groups was similar. Saline (vehicle) or saline suspensions or solutions of the test compounds were administered intragastrically (i.g.) through the forestomach cannula, after having closed the antral cannula. During the one hour absorption period, the stomachs of the rats were not perfused. After the absorption period, perfusion of the stomachs was resumed, and the perfusates were collected hourly for three hours. The average post-treatment hourly acid outputs of the test compound groups were compared to that of the saline group and the percent inhibition of acid output was calculated. Multiple statistical comparisons between groups was done using Dunnet's t test, C. W. Dunnet, Journal of American Statistical Association, 50, 1096 (1955).

[2] = system: gastric lesions induced by absolute alcohol; assay: gastric lesions induced in rats by absolute alcohol; assay type: in vivo, male albino rats (Sprague-Dawley); settings: i.g., 30 minutes before absolute ethanol
Protocol: More explicitly exemplified, the beneficial effects were evaluated as follows: food was withheld from male albino rats (180-220 g, Sprague-Dawley, Canadian Breeding Laboratories) for 18 to 19 hours, but water was freely available. Test compounds were administered intragastrically (i.g.) by stomach gavage, 30 minutes before absolute ethanol. The absolute ethanol (one milliliter) also was administered by gavage. One hour after the alcohol treatment, the rats were killed and their stomachs removed for observation. Clotted blood was removed from the surface of the mucosa, and the macroscopic lesions counted. The average scores of the treatment groups were compared individually to that of the control group and percent inhibitions of lesion formation calculated. The data was analyzed statistically according to Dunnett's t test for multiple comparisons between groups.
The results obtained when 2-cyano-3-(methylthio)-3-[[3-pyridinyl)-methyl]thio]-2-propenoic acid methyl ester, described in example 1, was tested according to the previous method is as follows.

[3] = 50 mg/kg/i.g., tested as hydrochloric acid addition salt

Question: How did the “Percent Inhibition of Acid Output” value ([1]; 25 mg/kg/i.g.) turn out when COC(=O)C(C#N)=C(SCc1cccnc1)SCc1cccnc1 [1 (R^2 = 3-pyridinylmethyl thio), 2-cyano-3,3-bis[[(3-pyridinyl)methyl]thio]-2-propenoic acid methyl ester] was run?
Answer: 38%

Question: With COC(=O)C(C#N)=C(SC)SCc1cccnc1 [Example 1, 2-Cyano-3-(methylthio)-3-[[(3-pyridinyl)methyl]thio]-2-propenoic Acid Methyl Ester] as the compound, how does the “Percent Inhibition of Acid Output” value ([1]; 25 mg/kg/i.g.) read?
Answer: 85%

Question: What about the “Gastric Ulcers Formed, % Inhibition” value ([2]; 5 mg/kg) of the same compound?
Answer: 61%

Question: And the “Gastric Ulcers Formed, Score (mean ± S.E.)” value ([2]; 5 mg/kg)?
Answer: 6.7 ± 2.2

Question: What about the “Gastric Ulcers Formed, % Inhibition” value ([2]; 10 mg/kg) of the same compound?
Answer: 100%

Question: What about the “Gastric Ulcers Formed, Score (mean ± S.E.)” value ([2]; 10 mg/kg) of the same compound?
Answer: 0

Question: How did the “Percent Inhibition of Acid Output” value ([1]; 25 mg/kg/i.g.) turn out when COC(=O)C(C#N)=C(SC)SCc1ccc[n+]([O-])c1 [Example 2, 2-Cyano-3-(methylthio)-3-[[(3-pyridinyl)methyl]thio]-2-propenoic Acid Methyl Ester N-oxide] was run?
Answer: 60%

Question: How did the “Percent Inhibition of Acid Output” value [1, 3] turn out when COC(=O)C(C#N)=C(SC)Sc1ccnnc1C [Example 3, 2-cyano-3-[(3-methyl-4-pyridazinyl)thio]-3-(methylthio)-2-propenoic acid methyl ester] was run?
Answer: 90%

Question: For COC(=O)C(C#N)=C(SC)SCc1cnccn1 [Example 4, 2-cyano-3-(methylthio)-3-[[(3-pyrazinyl)methyl]-thio]-2-propenoic acid methyl ester], which “Percent Inhibition of Acid Output” value [1, 3] is on record?
Answer: 88%

Question: With CSC(SCc1cccnc1)=C(C#N)C(N)=O [Example 12, 2-Cyano-3-(methylthio)-3-[[(3-pyridinyl)methyl]thio]-2-propenamide] as the compound, how does the “Percent Inhibition of Acid Output” value ([1]; 25 mg/kg/i.g.) read?
Answer: 27%

Question: Which “Percent Inhibition of Acid Output” value ([1]; 50 mg/kg/i.g.) does the source give for CSC(SCc1ccncc1)=C(C#N)C(N)=O [Example 13, 2-Cyano-3-(methylthio)-3-[[(4-pyridinyl)methyl]thio]-2-propenamide] here?
Answer: 59%
